Assay results published in ChEMBL document CHEMBL4020788, “Synthesis, SAR and molecular docking studies of benzo[d]thiazole-hydrazones as potential antibacterial and antifungal agents” (2017).
The source made the active and inactive calls. No cut-off for these calls is given here.

What was measured:
Format in all cases: functional
[1] = test system: Bacillus subtilis; test: Antibacterial activity against Bacillus subtilis at 75 ug/ml after 24 hrs by agar well diffusion method
[2] = test system: Staphylococcus aureus; test: Antibacterial activity against Staphylococcus aureus at 100 ug/ml after 24 hrs by agar well diffusion method; conditions: for zone of inhibition at 100 µg/mL: read-out: DIZ
[3] = test system: Fusarium verticillioides; test: Antifungal activity against Fusarium moniliforme at 25 ug/ml after 48 hrs by agar well diffusion method
[4] = test system: Klebsiella pneumoniae; test: Antibacterial activity against Klebsiella pneumoniae at 50 ug/ml after 24 hrs by agar well diffusion method; conditions: for zone of inhibition at 50 µg/mL: read-out: DIZ
[5] = test system: Staphylococcus aureus; test: Antibacterial activity against Staphylococcus aureus at 25 ug/ml after 24 hrs by agar well diffusion method
[6] = test system: Aspergillus niger; test: Antifungal activity against Aspergillus niger at 50 ug/ml after 48 hrs by agar well diffusion method
[7] = test system: Staphylococcus aureus; test: Antibacterial activity against Staphylococcus aureus at 75 ug/ml after 24 hrs by agar well diffusion method
[8] = test system: Staphylococcus aureus; test: Antibacterial activity against methicillin resistant Staphylococcus aureus MRSA090 at 75 ug/ml after 24 hrs by agar well diffusion method; conditions: for zone of inhibition at 75 µg/mL: MRSA090, 24 h, read-out: DIZ
[9] = test system: Escherichia coli; test: Antibacterial activity against Escherichia coli at 25 ug/ml after 24 hrs by agar well diffusion method
[10] = test system: Escherichia coli; test: Antibacterial activity against Escherichia coli at 50 ug/ml after 24 hrs by agar well diffusion method
[11] = test system: Klebsiella pneumoniae; test: Antibacterial activity against Klebsiella pneumoniae at 25 ug/ml after 24 hrs by agar well diffusion method; conditions: for zone of inhibition at 25 µg/mL: read-out: DIZ
[12] = test system: Staphylococcus aureus; test: Antibacterial activity against methicillin resistant Staphylococcus aureus MRSA090 at 50 ug/ml after 24 hrs by agar well diffusion method; conditions: for zone of inhibition at 50 µg/mL: MRSA090, 24 h, read-out: DIZ
[13] = test system: Fusarium verticillioides; test: Antifungal activity against Fusarium moniliforme at 50 ug/ml after 48 hrs by agar well diffusion method
[14] = test system: Staphylococcus aureus; test: Antibacterial activity against Staphylococcus aureus at 50 ug/ml after 24 hrs by agar well diffusion method
[15] = test system: Bacillus subtilis; test: Antibacterial activity against Bacillus subtilis at 100 ug/ml after 24 hrs by agar well diffusion method
[16] = test system: Staphylococcus aureus; test: Antibacterial activity against methicillin resistant Staphylococcus aureus MRSA090 at 25 ug/ml after 24 hrs by agar well diffusion method; conditions: for zone of inhibition at 25 µg/mL: MRSA090, 24 h, read-out: DIZ
[17] = test system: Bacillus subtilis; test: Antibacterial activity against Bacillus subtilis at 25 ug/ml after 24 hrs by agar well diffusion method
[18] = test system: Aspergillus niger; test: Antifungal activity against Aspergillus niger at 100 ug/ml after 48 hrs by agar well diffusion method
[19] = test system: Escherichia coli; test: Antibacterial activity against Escherichia coli at 100 ug/ml after 24 hrs by agar well diffusion method
[20] = test system: Bacillus subtilis; test: Antibacterial activity against Bacillus subtilis at 50 ug/ml after 24 hrs by agar well diffusion method
[21] = test system: Klebsiella pneumoniae; test: Antibacterial activity against Klebsiella pneumoniae at 100 ug/ml after 24 hrs by agar well diffusion method; conditions: for zone of inhibition at 100 µg/mL: read-out: DIZ
[22] = test system: Aspergillus niger; test: Antifungal activity against Aspergillus niger at 25 ug/ml after 48 hrs by agar well diffusion method
[23] = test system: Fusarium oxysporum; test: Antifungal activity against Fusarium oxysporum at 50 ug/ml after 48 hrs by agar well diffusion method; conditions: for zone of inhibition at 50 µg/mL: read-out: DIZ
[24] = test system: Staphylococcus aureus; test: Antibacterial activity against methicillin resistant Staphylococcus aureus MRSA090 at 100 ug/ml after 24 hrs by agar well diffusion method; conditions: for zone of inhibition at 100 µg/mL: MRSA090, 24 h, read-out: DIZ
[25] = test system: Fusarium oxysporum; test: Antifungal activity against Fusarium oxysporum at 25 ug/ml after 48 hrs by agar well diffusion method
[26] = test system: Klebsiella pneumoniae; test: Antibacterial activity against Klebsiella pneumoniae at 75 ug/ml after 24 hrs by agar well diffusion method; conditions: for zone of inhibition at 75 µg/mL: read-out: DIZ
[27] = test system: Aspergillus niger; test: Antifungal activity against Aspergillus niger at 75 ug/ml after 48 hrs by agar well diffusion method
[28] = test system: Fusarium oxysporum; test: Antifungal activity against Fusarium oxysporum at 100 ug/ml after 48 hrs by agar well diffusion method; conditions: read-out: DIZ
[29] = test system: Fusarium verticillioides; test: Antifungal activity against Fusarium moniliforme at 100 ug/ml after 48 hrs by agar well diffusion method; conditions: for zone of inhibition at 100 µg/mL: read-out: DIZ
[30] = test system: Escherichia coli; test: Antibacterial activity against Escherichia coli at 75 ug/ml after 24 hrs by agar well diffusion method
[31] = test system: Fusarium verticillioides; test: Antifungal activity against Fusarium moniliforme at 75 ug/ml after 48 hrs by agar well diffusion method; conditions: for zone of inhibition at 75 µg/mL: read-out: DIZ
[32] = test system: Fusarium oxysporum; test: Antifungal activity against Fusarium oxysporum at 75 ug/ml after 48 hrs by agar well diffusion method; conditions: read-out: DIZ

`COc1cc(/C=N/Nc2nc3cccc(C)c3s2)ccc1OCc1ccccc1` was tested, and the “diameter of the inhibition zone (DIZ)” value [1] was “inactive”, the zone of inhibition at 100 µg/mL [2] was 18 mm and the zone of inhibition at 25 µg/mL ([3]; read-out: DIZ) was 4 mm. For the same molecule, the zone of inhibition at 50 µg/mL [4] was 12 mm, the zone of inhibition at 25 µg/mL ([5]; read-out: DIZ) was 7 mm and the “diameter of the inhibition zone (DIZ)” value [6] was “inactive”. For the same molecule, the zone of inhibition at 75 µg/mL ([7]; read-out: DIZ) was 14 mm, the zone of inhibition at 75 µg/mL [8] was 12 mm and the “diameter of the inhibition zone (DIZ)” value [9] was “inactive”. For the same molecule, the “diameter of the inhibition zone (DIZ)” value [10] was “inactive”, the zone of inhibition at 25 µg/mL [11] was 7 mm and the zone of inhibition at 50 µg/mL [12] was 10 mm. For the same molecule, the zone of inhibition at 50 µg/mL ([13]; read-out: DIZ) was 9 mm, the zone of inhibition at 50 µg/mL ([14]; read-out: DIZ) was 11 mm and the “diameter of the inhibition zone (DIZ)” value [15] was “inactive”. For the same molecule, the zone of inhibition at 25 µg/mL [16] was 5 mm, the “diameter of the inhibition zone (DIZ)” value [17] was “inactive” and the “diameter of the inhibition zone (DIZ)” value [18] was “inactive”. The “diameter of the inhibition zone (DIZ)” value [19] was “inactive”, the “diameter of the inhibition zone (DIZ)” value [20] was “inactive” and the zone of inhibition at 100 µg/mL [21] was 17 mm. The “diameter of the inhibition zone (DIZ)” value [22] was “inactive”, the zone of inhibition at 50 µg/mL [23] was 5 mm and the zone of inhibition at 100 µg/mL [24] was 14 mm. The “diameter of the inhibition zone (DIZ)” value [25] was “inactive”, the zone of inhibition at 75 µg/mL [26] was 14 mm and the “diameter of the inhibition zone (DIZ)” value [27] was “inactive”. The zone of inhibition at 100 µg/mL [28] was 14 mm, the zone of inhibition at 100 µg/mL [29] was 20 mm and the “diameter of the inhibition zone (DIZ)” value [30] was “inactive”. For the same molecule, the zone of inhibition at 75 µg/mL [31] was 15 mm and the zone of inhibition at 75 µg/mL [32] was 9 mm.
With `Cc1ccc(/C=N/Nc2nc3cccc(C)c3s2)cc1` the “diameter of the inhibition zone (DIZ)” value [1] was “inactive”, the zone of inhibition at 100 µg/mL [2] was 10 mm and the “diameter of the inhibition zone (DIZ)” value [3] was “inactive”. For the same molecule, the “diameter of the inhibition zone (DIZ)” value [4] was “inactive”, the “diameter of the inhibition zone (DIZ)” value [5] was “inactive” and the “diameter of the inhibition zone (DIZ)” value [6] was “inactive”. For the same molecule, the “diameter of the inhibition zone (DIZ)” value [7] was “inactive”, the zone of inhibition at 75 µg/mL [8] was 14 mm and the zone of inhibition at 25 µg/mL ([9]; read-out: DIZ) was 10 mm. The zone of inhibition at 50 µg/mL ([10]; read-out: DIZ) was 14 mm, the “diameter of the inhibition zone (DIZ)” value [11] was “inactive” and the zone of inhibition at 50 µg/mL [12] was 10 mm. The “diameter of the inhibition zone (DIZ)” value [13] was “inactive”, the “diameter of the inhibition zone (DIZ)” value [14] was “inactive” and the “diameter of the inhibition zone (DIZ)” value [15] was “inactive”. For the same molecule, the zone of inhibition at 25 µg/mL [16] was 6 mm, the “diameter of the inhibition zone (DIZ)” value [17] was “inactive” and the “diameter of the inhibition zone (DIZ)” value [18] was “inactive”. For the same molecule, the zone of inhibition at 100 µg/mL ([19]; read-out: DIZ) was 22 mm, the “diameter of the inhibition zone (DIZ)” value [20] was “inactive” and the “diameter of the inhibition zone (DIZ)” value [21] was “inactive”. For the same molecule, the “diameter of the inhibition zone (DIZ)” value [22] was “inactive”, the zone of inhibition at 50 µg/mL [23] was 11 mm and the zone of inhibition at 100 µg/mL [24] was 17 mm. The zone of inhibition at 25 µg/mL ([25]; read-out: DIZ) was 7 mm, the “diameter of the inhibition zone (DIZ)” value [26] was “inactive” and the “diameter of the inhibition zone (DIZ)” value [27] was “inactive”. The zone of inhibition at 100 µg/mL [28] was 17 mm, the “diameter of the inhibition zone (DIZ)” value [29] was “inactive” and the zone of inhibition at 75 µg/mL ([30]; read-out: DIZ) was 17 mm. The “diameter of the inhibition zone (DIZ)” value [31] was “inactive” and the zone of inhibition at 75 µg/mL [32] was 14 mm.
For `Cc1cccc2nc(N/N=C/c3ccc(Oc4ccccc4)cc3)sc12`, the “diameter of the inhibition zone (DIZ)” value [1] was “inactive”, the “diameter of the inhibition zone (DIZ)” value [2] was “inactive” and the “diameter of the inhibition zone (DIZ)” value [3] was “inactive”. For the same molecule, the zone of inhibition at 50 µg/mL [4] was 18 mm, the “diameter of the inhibition zone (DIZ)” value [5] was “inactive” and the “diameter of the inhibition zone (DIZ)” value [6] was “inactive”. The “diameter of the inhibition zone (DIZ)” value [7] was “inactive”, the “diameter of the inhibition zone (DIZ)” value [8] was “inactive” and the “diameter of the inhibition zone (DIZ)” value [9] was “inactive”. The “diameter of the inhibition zone (DIZ)” value [10] was “inactive”, the zone of inhibition at 25 µg/mL [11] was 4 mm and the “diameter of the inhibition zone (DIZ)” value [12] was “inactive”. For the same molecule, the “diameter of the inhibition zone (DIZ)” value [13] was “inactive”, the “diameter of the inhibition zone (DIZ)” value [14] was “inactive” and the “diameter of the inhibition zone (DIZ)” value [15] was “inactive”. For the same molecule, the “diameter of the inhibition zone (DIZ)” value [16] was “inactive”, the “diameter of the inhibition zone (DIZ)” value [17] was “inactive” and the “diameter of the inhibition zone (DIZ)” value [18] was “inactive”. For the same molecule, the “diameter of the inhibition zone (DIZ)” value [19] was “inactive”, the “diameter of the inhibition zone (DIZ)” value [20] was “inactive” and the zone of inhibition at 100 µg/mL [21] was 15 mm. The “diameter of the inhibition zone (DIZ)” value [22] was “inactive”, the “diameter of the inhibition zone (DIZ)” value [23] was “inactive” and the “diameter of the inhibition zone (DIZ)” value [24] was “inactive”. For the same molecule, the “diameter of the inhibition zone (DIZ)” value [25] was “inactive”, the zone of inhibition at 75 µg/mL [26] was 11 mm and the “diameter of the inhibition zone (DIZ)” value [27] was “inactive”. The zone of inhibition at 100 µg/mL [28] was 15 mm, the zone of inhibition at 100 µg/mL [29] was 14 mm and the “diameter of the inhibition zone (DIZ)” value [30] was “inactive”. For the same molecule, the zone of inhibition at 75 µg/mL [31] was 8 mm and the zone of inhibition at 75 µg/mL [32] was 10 mm.
